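Five concentrations, 48 hours, 96-well plates. At the GI50, growth is halved. TGI marks complete inhibition of growth.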
Key:
Assay in all cases: inhibition of tumour cell growth, NCI panel, 48 h
NCI/ADR-RES ovarian = tested on: NCI/ADR-RES ovarian
SK-MEL-5 melanoma = tested on: SK-MEL-5 melanoma
SK-MEL-28 melanoma = tested on: SK-MEL-28 melanoma
BT-549 breast = tested on: BT-549 breast
KM12 colon = tested on: KM12 colon
EKVX NSCLC = tested on: EKVX NSCLC
SW-620 colon = tested on: SW-620 colon
OVCAR-5 ovarian = tested on: OVCAR-5 ovarian
HOP-62 NSCLC = tested on: HOP-62 NSCLC
SF-539 CNS = tested on: SF-539 CNS
MALME-3M melanoma = tested on: MALME-3M melanoma
OVCAR-4 ovarian = tested on: OVCAR-4 ovarian
SNB-19 CNS = tested on: SNB-19 CNS
LOX IMVI melanoma = tested on: LOX IMVI melanoma
NCI-H23 lung = tested on: NCI-H23 lung
NCI-H226 lung = tested on: NCI-H226 lung
NCI-H522 lung = tested on: NCI-H522 lung
HCC-2998 colon = tested on: HCC-2998 colon
PC-3 prostate = tested on: PC-3 prostate
HS 578T breast = tested on: HS 578T breast
RXF 393 renal = tested on: RXF 393 renal
IGROV1 ovarian = tested on: IGROV1 ovarian
OVCAR-3 ovarian = tested on: OVCAR-3 ovarian
786-0 renal = tested on: 786-0 renal
K-562 leukemia = tested on: K-562 leukemia
SK-MEL-2 melanoma = tested on: SK-MEL-2 melanoma
UO-31 renal = tested on: UO-31 renal
COLO 205 colon = tested on: COLO 205 colon
SNB-75 CNS = tested on: SNB-75 CNS
U251 CNS = tested on: U251 CNS
NCI-H460 lung = tested on: NCI-H460 lung
SF-268 CNS = tested on: SF-268 CNS
CAKI-1 renal = tested on: CAKI-1 renal
MDA-MB-231 breast = tested on: MDA-MB-231 breast
SK-OV-3 ovarian = tested on: SK-OV-3 ovarian
TK-10 renal = tested on: TK-10 renal
T-47D breast = tested on: T-47D breast
DU-145 prostate = tested on: DU-145 prostate
OVCAR-8 ovarian = tested on: OVCAR-8 ovarian
HT29 colon = tested on: HT29 colon
ACHN renal = tested on: ACHN renal
SN12C renal = tested on: SN12C renal
A498 renal = tested on: A498 renal
SF-295 CNS = tested on: SF-295 CNS
MDA-MB-435 = tested on: MDA-MB-435
UACC-62 melanoma = tested on: UACC-62 melanoma
HCT-116 colon = tested on: HCT-116 colon
A549 NSCLC = tested on: A549 NSCLC
UACC-257 melanoma = tested on: UACC-257 melanoma
MCF7 breast = tested on: MCF7 breast
HCT-15 colon = tested on: HCT-15 colon
M14 melanoma = tested on: M14 melanoma
HOP-92 NSCLC = tested on: HOP-92 NSCLC
RPMI-8226 leukemia = tested on: RPMI-8226 leukemia

O=C(O)CNC(=O)C(CS)Cc1ccccc1 (centres undefined)
GI50 (NCI/ADR-RES ovarian): > 25 µM
TGI (NCI/ADR-RES ovarian): > 25 µM
GI50 (SK-MEL-5 melanoma): > 25 µM
TGI (SK-MEL-5 melanoma): > 25 µM
GI50 (SK-MEL-28 melanoma): > 25 µM
TGI (SK-MEL-28 melanoma): > 25 µM
GI50 (BT-549 breast): > 25 µM
TGI (BT-549 breast): > 25 µM
GI50 (KM12 colon): > 25 µM
TGI (KM12 colon): > 25 µM
GI50 (EKVX NSCLC): > 25 µM
TGI (EKVX NSCLC): > 25 µM
GI50 (SW-620 colon): > 25 µM
TGI (SW-620 colon): > 25 µM
GI50 (OVCAR-5 ovarian): > 25 µM
TGI (OVCAR-5 ovarian): > 25 µM
GI50 (HOP-62 NSCLC): > 25 µM
TGI (HOP-62 NSCLC): > 25 µM
GI50 (SF-539 CNS): > 25 µM
TGI (SF-539 CNS): > 25 µM
GI50 (MALME-3M melanoma): > 25 µM
TGI (MALME-3M melanoma): > 25 µM
GI50 (OVCAR-4 ovarian): > 25 µM
TGI (OVCAR-4 ovarian): > 25 µM
GI50 (SNB-19 CNS): > 25 µM
TGI (SNB-19 CNS): > 25 µM
GI50 (LOX IMVI melanoma): > 25 µM
TGI (LOX IMVI melanoma): > 25 µM
GI50 (NCI-H23 lung): > 25 µM
TGI (NCI-H23 lung): > 25 µM
GI50 (NCI-H226 lung): > 25 µM
TGI (NCI-H226 lung): > 25 µM
GI50 (NCI-H522 lung): > 25 µM
TGI (NCI-H522 lung): > 25 µM
GI50 (HCC-2998 colon): > 25 µM
TGI (HCC-2998 colon): > 25 µM
GI50 (PC-3 prostate): > 25 µM
TGI (PC-3 prostate): > 25 µM
GI50 (HS 578T breast): > 25 µM
TGI (HS 578T breast): > 25 µM
GI50 (RXF 393 renal): 0.79 µM
TGI (RXF 393 renal): > 25 µM
GI50 (IGROV1 ovarian): > 25 µM
TGI (IGROV1 ovarian): > 25 µM
GI50 (OVCAR-3 ovarian): > 25 µM
TGI (OVCAR-3 ovarian): > 25 µM
GI50 (786-0 renal): > 25 µM
TGI (786-0 renal): > 25 µM
GI50 (K-562 leukemia): > 25 µM
TGI (K-562 leukemia): > 25 µM
GI50 (SK-MEL-2 melanoma): > 25 µM
TGI (SK-MEL-2 melanoma): > 25 µM
GI50 (UO-31 renal): > 25 µM
TGI (UO-31 renal): > 25 µM
GI50 (COLO 205 colon): > 25 µM
TGI (COLO 205 colon): > 25 µM
GI50 (SNB-75 CNS): > 25 µM
TGI (SNB-75 CNS): > 25 µM
GI50 (U251 CNS): > 25 µM
TGI (U251 CNS): > 25 µM
GI50 (NCI-H460 lung): > 25 µM
TGI (NCI-H460 lung): > 25 µM
GI50 (SF-268 CNS): > 25 µM
TGI (SF-268 CNS): > 25 µM
GI50 (CAKI-1 renal): > 25 µM
TGI (CAKI-1 renal): > 25 µM
GI50 (MDA-MB-231 breast): > 25 µM
TGI (MDA-MB-231 breast): > 25 µM
GI50 (SK-OV-3 ovarian): > 25 µM
TGI (SK-OV-3 ovarian): > 25 µM
GI50 (TK-10 renal): > 25 µM
TGI (TK-10 renal): > 25 µM
GI50 (T-47D breast): > 25 µM
TGI (T-47D breast): > 25 µM
GI50 (DU-145 prostate): > 25 µM
TGI (DU-145 prostate): > 25 µM
GI50 (OVCAR-8 ovarian): > 25 µM
TGI (OVCAR-8 ovarian): > 25 µM
GI50 (HT29 colon): > 25 µM
TGI (HT29 colon): > 25 µM
GI50 (ACHN renal): > 25 µM
TGI (ACHN renal): > 25 µM
GI50 (SN12C renal): > 25 µM
TGI (SN12C renal): > 25 µM
GI50 (A498 renal): > 25 µM
TGI (A498 renal): > 25 µM
GI50 (SF-295 CNS): > 25 µM
TGI (SF-295 CNS): > 25 µM
GI50 (MDA-MB-435): > 25 µM
TGI (MDA-MB-435): > 25 µM
GI50 (UACC-62 melanoma): > 25 µM
TGI (UACC-62 melanoma): > 25 µM
GI50 (HCT-116 colon): > 25 µM
TGI (HCT-116 colon): > 25 µM
GI50 (A549 NSCLC): > 25 µM
TGI (A549 NSCLC): > 25 µM
GI50 (UACC-257 melanoma): > 25 µM
TGI (UACC-257 melanoma): > 25 µM
GI50 (MCF7 breast): > 25 µM
TGI (MCF7 breast): > 25 µM
GI50 (HCT-15 colon): > 25 µM
TGI (HCT-15 colon): > 25 µM
GI50 (M14 melanoma): > 25 µM
TGI (M14 melanoma): > 25 µM

CN1CCN(CCCOc2ccc3nc(Nc4cc(Cl)cc(Cl)c4)ccc3c2)CC1
GI50 (NCI/ADR-RES ovarian): 1.99 µM
TGI (NCI/ADR-RES ovarian): 5.78 µM
GI50 (SK-MEL-5 melanoma): 1.76 µM
TGI (SK-MEL-5 melanoma): 3.31 µM
GI50 (SK-MEL-28 melanoma): 1.63 µM
TGI (SK-MEL-28 melanoma): 3.21 µM
GI50 (BT-549 breast): 1.9 µM
TGI (BT-549 breast): 3.58 µM
GI50 (KM12 colon): 1.53 µM
TGI (KM12 colon): 2.99 µM
GI50 (EKVX NSCLC): 1.63 µM
TGI (EKVX NSCLC): 3.38 µM
GI50 (SW-620 colon): 1.68 µM
TGI (SW-620 colon): 3.46 µM
GI50 (OVCAR-5 ovarian): 1.71 µM
TGI (OVCAR-5 ovarian): 3.35 µM
GI50 (OVCAR-4 ovarian): 1.79 µM
TGI (OVCAR-4 ovarian): 5.65 µM
GI50 (NCI-H23 lung): 1.63 µM
TGI (NCI-H23 lung): 3.54 µM
GI50 (NCI-H226 lung): 2.14 µM
TGI (NCI-H226 lung): 5.68 µM
GI50 (NCI-H522 lung): 2.06 µM
TGI (NCI-H522 lung): 3.74 µM
GI50 (HCC-2998 colon): 1.54 µM
TGI (HCC-2998 colon): 3.06 µM
GI50 (PC-3 prostate): 1.93 µM
TGI (PC-3 prostate): 3.71 µM
GI50 (HS 578T breast): 1.87 µM
TGI (HS 578T breast): 5.24 µM
GI50 (RXF 393 renal): 1.33 µM
TGI (RXF 393 renal): 2.93 µM
GI50 (HOP-92 NSCLC): 1.46 µM
TGI (HOP-92 NSCLC): 3.2 µM
GI50 (OVCAR-3 ovarian): 1.56 µM
TGI (OVCAR-3 ovarian): 3.22 µM
GI50 (786-0 renal): 1.58 µM
TGI (786-0 renal): 3.08 µM
GI50 (SK-MEL-2 melanoma): 2.03 µM
TGI (SK-MEL-2 melanoma): 4.04 µM
GI50 (UO-31 renal): 1.58 µM
TGI (UO-31 renal): 3.24 µM
GI50 (SNB-75 CNS): 1.11 µM
TGI (SNB-75 CNS): 2.56 µM
GI50 (U251 CNS): 1.61 µM
TGI (U251 CNS): 3.13 µM
GI50 (NCI-H460 lung): 1.54 µM
TGI (NCI-H460 lung): 3.18 µM
GI50 (SF-268 CNS): 1.48 µM
TGI (SF-268 CNS): 3.02 µM
GI50 (CAKI-1 renal): 1.82 µM
TGI (CAKI-1 renal): 3.72 µM
GI50 (MDA-MB-231 breast): 1.56 µM
TGI (MDA-MB-231 breast): 3.31 µM
GI50 (SK-OV-3 ovarian): 2 µM
TGI (SK-OV-3 ovarian): 3.69 µM
GI50 (TK-10 renal): 2.33 µM
TGI (TK-10 renal): 3.92 µM
GI50 (T-47D breast): 1.99 µM
TGI (T-47D breast): 4.39 µM
GI50 (DU-145 prostate): 1.57 µM
TGI (DU-145 prostate): 3.07 µM
GI50 (RPMI-8226 leukemia): 2.16 µM
TGI (RPMI-8226 leukemia): 4.78 µM
GI50 (HT29 colon): 0.548 µM
TGI (HT29 colon): 1.84 µM
GI50 (ACHN renal): 1.51 µM
TGI (ACHN renal): 2.9 µM
GI50 (SN12C renal): 1.81 µM
TGI (SN12C renal): 3.77 µM
GI50 (A498 renal): 1.8 µM
TGI (A498 renal): 3.22 µM
GI50 (SF-295 CNS): 1.41 µM
TGI (SF-295 CNS): 2.89 µM
GI50 (MDA-MB-435): 1.5 µM
TGI (MDA-MB-435): 2.94 µM
GI50 (UACC-62 melanoma): 1.81 µM
TGI (UACC-62 melanoma): 3.76 µM
GI50 (HCT-116 colon): 1.58 µM
TGI (HCT-116 colon): 2.98 µM
GI50 (A549 NSCLC): 2.11 µM
TGI (A549 NSCLC): 3.8 µM
GI50 (UACC-257 melanoma): 2.13 µM
TGI (UACC-257 melanoma): 3.85 µM
GI50 (MCF7 breast): 1.48 µM
TGI (MCF7 breast): 3.05 µM
GI50 (HCT-15 colon): 0.677 µM
TGI (HCT-15 colon): 2.11 µM
GI50 (M14 melanoma): 1.5 µM
TGI (M14 melanoma): 3.08 µM

Reference: PubChem BioAssay (NCI)
